This experiment in a line: Modulation of capsid assembly in HBV infected in human HepG2.2.15 cells assessed as inhibition of viral DNA replication preincubated for 3 days followed by replacement with fresh medium containing compound and measured after 3 days by QuantiGene assay.

SMILES strings stand for the structures.

Experimental findings from BindingDB's records for doi:10.1016/j.bmcl.2021.128353 (Novira Therapeutics, 2021) are described below.

By EC50 is commonly meant the concentration giving half of the maximal effect.

Regarding `CCOC(=O)c1n[nH]c2c1CN(C(=O)Nc1cccc(Cl)c1)CC2`, the EC50 amounted to 260 nM. Regarding `CCN(C)C(=O)c1n[nH]c2c1CN(C(=O)Nc1cccc(Cl)c1)CC2`, the EC50 worked out at 410 nM. As for `CONC(=O)c1n[nH]c2c1CN(C(=O)Nc1cccc(Cl)c1)CC2`, the EC50 came out at 400 nM.

Turning to `O=C(Nc1cccc(Cl)c1)N1CCc2[nH]nc(C(=O)N3CCCCO3)c2C1`, the EC50 came to 100 nM. Next, `CN(OC1COC1)C(=O)c1n[nH]c2c1CN(C(=O)Nc1cccc(Cl)c1)CC2`: 24 nM.

As for `CN(OC1CCCOC1)C(=O)c1n[nH]c2c1CN(C(=O)Nc1cccc(Cl)c1)CC2` (centres undefined), the EC50 was 370 nM.

As to `C[C@@H]1Cc2nn3c(c2CN1C(=O)Nc1ccc(F)c(Cl)c1)C(=O)N(C)O[C@@H](CO)C3`, the EC50 stood at 4 nM.

For `C[C@@H]1Cc2nn3c(c2CN1C(=O)Nc1ccc(F)c(C(F)(F)F)c1)C(=O)N(C)O[C@@H](CO)C3`, the EC50 came to 2.7 nM. The result for `Cc1cc(NC(=O)N2Cc3c(nn4c3C(=O)N(C)O[C@@H](CO)C4)C[C@H]2C)ccc1F` reads 3.4 nM; that for `C[C@@H]1Cc2nn3c(c2CN1C(=O)Nc1ccc(F)c(C#N)c1)C(=O)N(C)O[C@@H](CO)C3`, 7.3 nM. Next, `C[C@@H]1Cc2nn3c(c2CN1C(=O)Nc1ccc(F)c(C#N)c1)C(=O)N(C)OCC3`: 5.3 nM; `C[C@@H]1Cc2nn3c(c2CN1C(=O)Nc1ccc(F)c(Cl)c1)C(=O)N(C)O[C@@H](CN(C)C)C3`: 21 nM.

Consider `C[C@@H]1Cc2nn3c(c2CN1C(=O)Nc1ccc(F)c(C#N)c1)C(=O)N(C)O[C@@H](C(=O)N(C)CC(F)F)C3`, for which the EC50 worked out at 5.3 nM. Next, `C[C@@H]1Cc2nn3c(c2CN1C(=O)Nc1ccc(F)c(C#N)c1)C(=O)N(C)O[C@@H](COCC(F)F)C3`: 5 nM; `C[C@@H]1Cc2nn3c(c2CN1C(=O)Nc1ccc(F)c(C#N)c1)C(=O)N(C)O[C@@H](CF)C3`: 6 nM. Next, `CN1O[C@@H](CO)Cn2nc3c(c2C1=O)CN(C(=O)Nc1ccc(F)c(Cl)c1)CC3`: 4 nM; `CN1O[C@H](CO)Cn2nc3c(c2C1=O)CN(C(=O)Nc1ccc(F)c(Cl)c1)CC3`: 15 nM. Next, `CON(C)C(=O)c1n[nH]c2c1CN(C(=O)Nc1cccc(Cl)c1)[C@@H](C)C2`: 31 nM; `CON(C)C(=O)c1n[nH]c2c1CN(C(=O)Nc1cccc(Cl)c1)[C@H](C)C2`: 330 nM; `C[C@@H]1Cc2nn3c(c2CN1C(=O)Nc1ccc(F)c(Cl)c1)C(=O)N(C)O[C@H](CO)C3`: 4 nM. Take `C[C@H]1Cc2nn3c(c2CN1C(=O)Nc1ccc(F)c(Cl)c1)C(=O)N(C)O[C@H](CO)C3`: the half-maximal effective concentration (EC50) came out at 216 nM. Next, `C[C@H]1Cc2nn3c(c2CN1C(=O)Nc1ccc(F)c(Cl)c1)C(=O)N(C)O[C@@H](CO)C3`: 54 nM; `CON(C)C(=O)c1n[nH]c2c1CN(C(=O)Nc1cccc(Cl)c1)CC2` [US10189835, Compound 434]: 54 nM; `CCCC(=O)c1n[nH]c2c1CN(C(=O)Nc1cccc(Cl)c1)CC2` [US10189835, Compound 561]: 68 nM. Next, `CCN(OC)C(=O)c1n[nH]c2c1CN(C(=O)Nc1cccc(Cl)c1)CC2` [US10189835, Compound 594]: 90 nM; `CON(C(=O)c1n[nH]c2c1CN(C(=O)Nc1cccc(Cl)c1)CC2)C(C)C` [US10189835, Compound 595]: 210 nM. With `CCON(C)C(=O)c1n[nH]c2c1CN(C(=O)Nc1cccc(Cl)c1)CC2` [US10189835, Compound 599], the EC50 worked out at 63 nM.

Consider `CC(C)ON(C)C(=O)c1n[nH]c2c1CN(C(=O)Nc1cccc(Cl)c1)CC2` [US10189835, Compound 600], for which the EC50 stood at 57 nM.

As to `O=C(Nc1cccc(Cl)c1)N1CCc2[nH]nc(C(=O)N3CCCO3)c2C1` [US10189835, Compound 699], the EC50 amounted to 120 nM. The result for `CCCON(C)C(=O)c1n[nH]c2c1CN(C(=O)Nc1cccc(Cl)c1)CC2` [US10189835, Compound 795] reads 210 nM; that for `CN(OCCO)C(=O)c1n[nH]c2c1CN(C(=O)Nc1cccc(Cl)c1)CC2` [US10189835, Compound 796], 155 nM; that for `CN(OC1CCC1)C(=O)c1n[nH]c2c1CN(C(=O)Nc1cccc(Cl)c1)CC2` [US10189835, Compound 805], 97 nM. The result for `CN(OC1CCOC1)C(=O)c1n[nH]c2c1CN(C(=O)Nc1cccc(Cl)c1)CC2` (centres undefined) [US10189835, Compound 910] reads 300 nM.

As for `CN1CC(ON(C)C(=O)c2n[nH]c3c2CN(C(=O)Nc2cccc(Cl)c2)CC3)C1` [US10189835, Compound 912], the EC50 is 200 nM.
